Experimental data reported in PMC5216056 (Nature Communications, 2017).
Several values for one entry are separate records, joined by “and”; a condition that tells them apart may be missing. Identical values can stand only once. Like-named read-outs stand apart in the source and are kept apart here.

Legend:
mCB1R = biological target: T1, mCB1R (Mus musculus, UniProt P47746); experiment: biochemical
T1 construct: from tissue; host or cells: brain of male C57BL/6J mice

hCB2R [1] = biological target: T2, hCB2R (Homo sapiens, UniProt P34972); experiment: cell-based; type: cell-based
hDAGL-α = biological target: T3, hDAGL-α (Homo sapiens, UniProt Q9Y4D2); experiment: Biochemical DAGLα activity assay
T3 construct: expressed in transfected cells; host or cells: HEK293T (transient), membrane preparation
T3 sequence (Q9Y4D2 1-1042): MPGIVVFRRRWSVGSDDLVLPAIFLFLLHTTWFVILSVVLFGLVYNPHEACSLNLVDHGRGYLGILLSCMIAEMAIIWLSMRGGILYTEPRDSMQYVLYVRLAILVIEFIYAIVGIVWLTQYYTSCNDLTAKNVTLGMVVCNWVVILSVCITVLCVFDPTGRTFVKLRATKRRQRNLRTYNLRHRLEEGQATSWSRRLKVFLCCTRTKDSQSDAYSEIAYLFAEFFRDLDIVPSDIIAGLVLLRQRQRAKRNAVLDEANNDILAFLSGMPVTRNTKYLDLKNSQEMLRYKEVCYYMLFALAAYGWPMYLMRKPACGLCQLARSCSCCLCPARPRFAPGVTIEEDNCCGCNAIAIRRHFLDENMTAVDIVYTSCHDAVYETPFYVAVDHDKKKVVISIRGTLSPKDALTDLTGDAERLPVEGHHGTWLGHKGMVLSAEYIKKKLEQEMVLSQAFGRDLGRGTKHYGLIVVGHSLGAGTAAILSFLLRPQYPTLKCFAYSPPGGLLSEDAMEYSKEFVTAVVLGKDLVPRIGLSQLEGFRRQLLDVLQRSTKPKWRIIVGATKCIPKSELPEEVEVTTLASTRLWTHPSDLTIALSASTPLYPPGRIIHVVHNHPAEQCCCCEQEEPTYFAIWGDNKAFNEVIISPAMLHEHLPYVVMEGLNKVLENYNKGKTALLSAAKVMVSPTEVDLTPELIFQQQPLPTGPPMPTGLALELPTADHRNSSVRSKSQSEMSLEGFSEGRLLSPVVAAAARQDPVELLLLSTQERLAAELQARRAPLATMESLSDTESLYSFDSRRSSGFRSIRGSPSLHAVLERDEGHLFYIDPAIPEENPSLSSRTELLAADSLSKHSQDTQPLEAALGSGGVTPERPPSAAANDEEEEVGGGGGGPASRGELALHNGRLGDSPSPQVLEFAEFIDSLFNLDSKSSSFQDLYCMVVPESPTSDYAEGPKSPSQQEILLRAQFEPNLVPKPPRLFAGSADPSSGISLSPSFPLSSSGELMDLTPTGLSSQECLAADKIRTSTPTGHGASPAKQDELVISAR
Protocol: (§1) Cell culture and membrane preparation were performed as previously described. HEK293T cells (source: Dutch Cancer Institute) were grown in DMEM with stable glutamine and phenolred (PAA), 10% New Born Calf serum, penicillin and streptomycin. Cells were passaged every 2–3 days by resuspending in medium and seeding them to appropriate confluence. Membranes were prepared from transiently transfected HEK293T cells. One day prior to transfection 10^7 cells were seeded in a 15 cm petri dish. Cells were transfected by the addition of a 3:1 mixture of polyethyleneimine (60 μg) and plasmid DNA (20 μg) in 2 ml serum-free medium. The medium was refreshed after 24 h, and after 72 h the cells were harvested by suspending them in 20 ml medium. The suspension was centrifuged for 10 min at 1000, rpm, and the supernatant was removed. The cell pellet was stored at −80 °C until use. Cell pellets were thawed on ice and suspended in lysis buffer A (20 mM HEPES, 2 mM DTT, 0.25 M sucrose, 1 mM MgCl2, […] Benzonase). The suspension was homogenized by polytrone (3 × 7 s) and incubated for 30 min on ice. The suspension was subjected to ultracentrifugation (100,000 × g, 30 min, 4 °C, Beckman Coulter, Type Ti70 rotor) to yield the cytosolic fraction in the supernatant and the membrane fraction as a pellet. The pellet was resuspended in lysis buffer B (20 mM HEPES, 2 mM DTT). The protein concentration was determined with Quick Start Bradford assay (Biorad). The protein fractions were diluted to a total protein concentration of 1 mg ml^−1 and stored in small aliquots at −80 °C until use.
hDAGL-α activity was measured by the extent of the hydrolysis of para-nitrophenylbutyrate (PNP-butyrate) by membrane preparations from HEK293T cells (source: Dutch Cancer Institute) transiently transfected with hDAGL-α (ref. [43]). Percentage of inhibition of reference ligands was determined in comparison with an untreated control. Reactions were performed in 50 mM pH 7.2 HEPES buffer with 0.05 μg μl^−1 final protein concentration hDAGL-α transfected protein.

MAGL = biological target: T4, MAGL (Homo sapiens, UniProt Q99685); experiment: Biochemical MAGL activity assay
T4 construct: expressed in transfected cells; host or cells: HEK293T (transient), membrane preparation
T4 sequence (Q99685 1-303): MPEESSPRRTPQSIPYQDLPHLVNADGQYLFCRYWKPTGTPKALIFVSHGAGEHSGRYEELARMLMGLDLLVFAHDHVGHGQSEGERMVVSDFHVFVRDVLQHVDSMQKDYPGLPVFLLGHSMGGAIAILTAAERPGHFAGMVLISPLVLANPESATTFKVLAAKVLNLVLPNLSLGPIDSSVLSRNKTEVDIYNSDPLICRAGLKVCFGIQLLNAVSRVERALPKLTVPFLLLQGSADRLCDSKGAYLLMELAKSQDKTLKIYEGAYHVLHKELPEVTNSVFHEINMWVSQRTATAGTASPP
Protocol: as §1
Percentage of inhibition of reference ligands was determined in comparison with an untreated control. […] Fluorescence was measured in 5 min intervals for 60 min.

mCB2R = mCB2R (Mus musculus, UniProt P47936); experiment: biochemical; type: biochemical; parameters: from tissue; host or cells: spleen of male C57BL/6J mice; details: for CB2R Selectivity cAMP (mouse): 10^(pEC50 CB2R-pEC50 CB1R)
hCB2R [2] = biological target: T2, hCB2R; experiment: cell-based; type: cell-based; parameters: expressed in transfected cells; host or cells: Flp-In-293 (Invitrogen #R750-07), pcDNA5/FRT
hCB2R [3] = biological target: T2, hCB2R; experiment: cell-based; type: cell-based; parameters: expressed in transfected cells; host or cells: Flp-In-293 (Invitrogen #R750-07), pcDNA5/FRT; remark: listed apart in the source
5-HT2B (h) = biological target: T5, 5-HT2B (h) (Homo sapiens, UniProt P41595); experiment: CEREP panel; type: binding; details: 10 µM
T5 construct: CEREP (contract assay)
T5 sequence (P41595 whole entry): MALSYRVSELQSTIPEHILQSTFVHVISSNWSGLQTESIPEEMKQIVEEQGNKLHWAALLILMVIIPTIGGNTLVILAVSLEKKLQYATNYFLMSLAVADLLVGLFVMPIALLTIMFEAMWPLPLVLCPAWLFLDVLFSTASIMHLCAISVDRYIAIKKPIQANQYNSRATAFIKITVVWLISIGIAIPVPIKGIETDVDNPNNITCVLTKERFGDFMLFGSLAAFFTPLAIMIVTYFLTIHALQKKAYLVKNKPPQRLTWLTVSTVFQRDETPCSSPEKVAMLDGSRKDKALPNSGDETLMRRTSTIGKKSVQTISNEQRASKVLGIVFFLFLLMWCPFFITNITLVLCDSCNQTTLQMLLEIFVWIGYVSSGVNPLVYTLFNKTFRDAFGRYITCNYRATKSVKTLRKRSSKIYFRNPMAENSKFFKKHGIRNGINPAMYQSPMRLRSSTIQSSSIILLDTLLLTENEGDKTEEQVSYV

T1 sequence (P47746 whole entry): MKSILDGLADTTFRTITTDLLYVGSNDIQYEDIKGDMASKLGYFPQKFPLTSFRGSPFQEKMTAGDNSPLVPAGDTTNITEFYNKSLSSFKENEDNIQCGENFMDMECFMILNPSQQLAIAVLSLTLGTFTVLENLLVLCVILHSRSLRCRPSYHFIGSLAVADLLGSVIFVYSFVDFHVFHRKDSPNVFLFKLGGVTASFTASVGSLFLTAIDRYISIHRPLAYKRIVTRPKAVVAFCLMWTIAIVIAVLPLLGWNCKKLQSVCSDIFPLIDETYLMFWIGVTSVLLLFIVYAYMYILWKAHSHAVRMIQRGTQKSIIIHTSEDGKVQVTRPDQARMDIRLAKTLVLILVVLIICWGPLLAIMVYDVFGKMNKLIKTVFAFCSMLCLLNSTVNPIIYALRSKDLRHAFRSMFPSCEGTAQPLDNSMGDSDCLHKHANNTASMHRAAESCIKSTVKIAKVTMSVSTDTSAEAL
T2 sequence (P34972 whole entry): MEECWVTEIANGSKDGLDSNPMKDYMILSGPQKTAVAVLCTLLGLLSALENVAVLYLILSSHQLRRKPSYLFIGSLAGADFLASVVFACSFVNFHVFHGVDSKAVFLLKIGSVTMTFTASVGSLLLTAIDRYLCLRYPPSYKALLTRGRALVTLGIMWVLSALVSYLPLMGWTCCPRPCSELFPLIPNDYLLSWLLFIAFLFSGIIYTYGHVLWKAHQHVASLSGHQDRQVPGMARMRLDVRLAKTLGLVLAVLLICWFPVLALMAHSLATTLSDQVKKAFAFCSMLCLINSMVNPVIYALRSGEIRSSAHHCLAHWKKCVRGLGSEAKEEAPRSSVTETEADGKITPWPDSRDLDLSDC
Sequence of mCB2R (P47936 whole entry): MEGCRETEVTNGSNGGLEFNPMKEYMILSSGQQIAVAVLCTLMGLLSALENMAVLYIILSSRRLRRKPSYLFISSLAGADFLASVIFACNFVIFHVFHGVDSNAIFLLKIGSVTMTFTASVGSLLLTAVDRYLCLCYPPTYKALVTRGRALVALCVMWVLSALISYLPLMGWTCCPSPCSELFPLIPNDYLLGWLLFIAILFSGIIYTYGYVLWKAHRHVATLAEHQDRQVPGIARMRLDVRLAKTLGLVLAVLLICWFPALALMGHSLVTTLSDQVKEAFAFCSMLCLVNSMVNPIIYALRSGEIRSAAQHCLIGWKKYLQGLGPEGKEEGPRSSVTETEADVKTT

Compound	Emax cAMP mCB1R (mCB1R)	Emax ± SEM β-AR recruitment hCB2R (hCB2R [1])	pEC50 ± SEM β-AR recruitment hCB2R (hCB2R [1])	DAGL % inhibition at 10 µM ± SD (hDAGL-α)	MAGL % inhibition at 10 µM ± SD (MAGL)	Emax cAMP mCB2R (mCB2R)	pEC50 ± SEM cAMP mCB2R (mCB2R; mouse spleen)	Emax ± SEM cAMP hCB2R (hCB2R [2])	pEC50 ± SEM cAMP hCB2R (hCB2R [2])	Emax ± SEM pERK hCB2R (hCB2R [3])	pEC50 ± SEM pERK hCB2R (hCB2R [3])	pEC50 ± SEM cAMP mCB1R (mCB1R; mouse brain)	CB2R Selectivity cAMP (mouse) (mCB2R)	% inhibition 5-HT2B (h) (5-HT2B (h))	other results
CN1CCCCC1Cn1cc(C(=O)c2cc([N+](=O)[O-])ccc2I)c2ccccc21 (racemic) [(rac)-AM1241]	21	14 ± 2	< 5	3 ± 10%	-2 ± 17%	-6	7.03 ± 0.26	67 ± 3	8.49± 0.08	32 ± 12	7.6 ± 0.88				pEC50 ± SEM cAMP mCB1R (mCB1R): < 5; CB2R Selectivity pERK (hCB2R [3]): 339
CCCCC/C=C\C/C=C\C/C=C\C/C=C\CCCC(=O)OC(CO)CO [2-AG, 2-arachidonoyl glycerol]															EC50 (mCB1R; mouse brain, read-out: pEC50 ± SEM cAMP mCB1R (converted)): > 6.31 µM and 6.92 µM; EC50 (hCB2R [1]): 2 µM; Emax (hCB2R [1]; read-out: Emax ± SEM β-AR recruitment hCB2R): 80 ± 21%; inhibition at 10 µM (hDAGL-α; read-out: DAGL % inhibition at 10 µM ± SD): -12 ± 16%; inhibition at 10 µM (MAGL; read-out: MAGL % inhibition at 10 µM ± SD): 3 ± 15%; EC50 (mCB2R; mouse spleen, read-out: pEC50 ± SEM cAMP mCB2R (converted)): 0.0708 µM; Emax (mCB2R; read-out: Emax cAMP mCB2R): 53%; Emax (hCB2R [2]; read-out: Emax ± SEM cAMP hCB2R): 94 ± 1%; EC50 (hCB2R [3]; pEC50 ± SEM pERK hCB2R): 3.89 µM and > 3.16 µM; Emax (hCB2R [3]; read-out: Emax ± SEM pERK hCB2R): 99 ± 11%
CN1CCCC[C@@H]1Cn1cc(C(=O)c2cc([N+](=O)[O-])ccc2I)c2ccccc21 [(R)-AM1241]	32	29 ± 4	7.52 ± 0.43	10 ± 12%	-2 ± 18%	-22	6.17 ± 0.23	65 ± 2	8.76 ± 0.18	75 ± 9	7.84 ± 0.29	5.08 ± 0.16	12 fold		CB2R Selectivity β-AR recruitment (hCB2R [1]; 10^(pEC50 CB2R-pEC50 CB1R)): 86 fold; CB2R Selectivity cAMP (human) (hCB2R [2]; 10^(pEC50 CB2R-pEC50 CB1R)): 391 fold; CB2R Selectivity pERK (hCB2R [3]; 10^(pEC50 CB2R-pEC50 CB1R)): 151 fold
CN1CCCC[C@H]1Cn1cc(C(=O)c2cc([N+](=O)[O-])ccc2I)c2ccccc21 [(S)-AM1241]	16	29 ± 8	6.54 ± 0.44	9 ± 9%	-4 ± 18%	35	7.6 ± 0.3	78 ± 1	7.40 ± 0.11	60 ± 11	6.92 ± 0.22	5.43 ± 0.42	148 fold	93%	
Cc1c(C(=O)NN2CCCCC2)nn(-c2ccc(Cl)cc2Cl)c1-c1ccc(I)cc1 [AM251]		-104 ± 8		17 ± 6%	0 ± 16%			-175 ± 19		-90 ± 3				28%	
